In article PMC3923778 (PLoS Currents, 2014):
Entries after “also recorded” stand apart in the source; their conditions may differ.

Key:
PDE2 = test system: PDE2; design: method as in PMID 9216839, PMID 17697115, PMID 10618442, PMID 8961086, PMID 7581878; conditions: ref [12], [23], [25], [27], [28], read-out: previously reported potencies; cited from earlier work
PDE5 Cat = molecular target: T1, PDE5 Cat (Homo sapiens, UniProt O76074); assay: IMAP PDE activity assay (Scottish Biomedical); assay type: biochemical; conditions: PDE5 Cat (catalytic domain)
T1 construct: using full length PDE5 versus the catalytic domain used in our assays; Scottish Biomedical (contract laboratory)

R6/2 mice [1] = assay: Chronic oral dosing in the R6/2 mouse model, overall disease progression; assay type: in vivo; conditions: chronic oral administration, 10 or 30 mg/kg BID p.o. from 4 weeks
Description: All animal experiments were carried out according to the National Institute of Health (NIH) guidelines for the care and use of laboratory animals, and approved by the National Laboratory Animal Board, Finland. 60 male and female R6/2 TG mice (R6/2J CAG 120 and 12 male and female wild-type littermate control mice were bred at National Animal Facility Center, Kuopio, Finland.
Mice were housed in groups of 4 and separated by sexes. In each cage, one wild-type mouse of the same sex, but different litter, was included in an attempt to provide normal social stimulation. Mice were allowed to acclimate to the experimental room for at least one hour prior to the beginning of any experiment. Mice were transported from the colony room to experimental rooms in their home cages. Experimentation was conducted in a blinded manner. Tail samples were taken at the end of the study for verification of genotypes and CAG sizes of individual mice.
(§1) All values are presented as mean ± Standard Error of Mean (SEM), and differences are considered to be statistically significant at the p < 0.05 level. Statistical analysis was performed using StatsDirect statistical software. Differences between group means were analyzed by 1-way-ANOVA followed by Dunnett’s test (comparison to the control (=vehicle treated TG mice) group). The acquisition of the Cued two-choice swim test was analyzed using Fisher’s exact test.

R6/2 mice [2] = assay: Rear Climbing Test; assay type: in vivo, mouse; conditions: for Rear Climbing Test Rearing Frequency: p vs Vehicle-treated R6/2 mice / Rear Climbing Test Climbing Instances: p vs Vehicle-treated R6/2 mice / Rear Climbing Test Latency to Climb: p vs Vehicle-treated R6/2 mice / Rear Climbing Test Time Spent Climbing: p vs Vehicle-treated R6/2 mice: BID
Description: Motor function testing including open field and rear climbing tests were commenced at 4 weeks of age and continued at weeks 6, 8 and 12, for grip strength test at age weeks 4 and 12 and for rotarod at age weeks 4, 6 and 8. Compound treatment was started at 4 weeks of age after the baseline behavioral tests.
Rear climbing test was performed at age weeks 4, 6, 8 and 12. The mice were tested on Tuesdays. Each animal was placed into custom made pencil holder, and was scored for 5 minutes. During this period the following events were noted: 1) number of times the mouse rears without touching the mesh walls, 2) latency to climb (lifting 4 paws from the floor is labeled climbing), 3) climbing time, and 4) climbing instances.
as §1

PDE9 = test system: PDE9; design: method as in PMID 9216839, PMID 17697115, PMID 10618442, PMID 8961086, PMID 7581878; conditions: ref [12], [23], [25], [27], [28], read-out: previously reported potencies; cited from earlier work
[3] = Age Week 4, 10 mg/kg p.o., ANOVA
[4] = Age Week 4, 30 mg/kg p.o., ANOVA
[5] = Age Week 6, 10 mg/kg p.o., ANOVA
[6] = Age Week 6, 30 mg/kg p.o., ANOVA
[7] = Age Week 8, 10 mg/kg p.o., ANOVA
[8] = Age Week 8, 30 mg/kg p.o., ANOVA
[9] = Age Week 12, 10 mg/kg p.o., ANOVA
[10] = Age Week 12, 30 mg/kg p.o., ANOVA

## CN1C(=O)c2nc(Cc3ccc(C(F)(F)F)cc3)[nH]c2N2C1=N[C@H]1CCC[C@H]12 [SCH-51866, (+)-cis-5,6a,7,8,9,9a-hexahydro-2-[4-[trifluro-methyl]phenylmethyl]-5-methyl-cylopent[4,5]imidazo [2,1-b]purin-4(3H)one]
PDE2
  IC50: 2000 nM
PDE5 Cat
  IC50: 2840 nM
R6/2 mice [1]
  effect on R6/2 disease progression / disease-related phenotypes: did not ameliorate disease progression; also recorded: did not modify any R6/2 disease-related phenotypes
R6/2 mice [2]; Age Week 4, 10 mg/kg p.o.
  Rear Climbing Test Rearing Frequency: p vs Vehicle-treated R6/2 mice: p=0.507
R6/2 mice [2]; [3]
  Rear Climbing Test Climbing Instances: p vs Vehicle-treated R6/2 mice: ANOVA: p=0.484
  Rear Climbing Test Latency to Climb: p vs Vehicle-treated R6/2 mice: ANOVA: p=0.365
  Rear Climbing Test Time Spent Climbing: p vs Vehicle-treated R6/2 mice: ANOVA: p=0.853
R6/2 mice [2]; Age Week 4, 30 mg/kg p.o.
  Rear Climbing Test Rearing Frequency: p vs Vehicle-treated R6/2 mice: p=0.186
R6/2 mice [2]; [4]
  Rear Climbing Test Climbing Instances: p vs Vehicle-treated R6/2 mice: ANOVA: p=0.484
  Rear Climbing Test Latency to Climb: p vs Vehicle-treated R6/2 mice: ANOVA: p=0.365
  Rear Climbing Test Time Spent Climbing: p vs Vehicle-treated R6/2 mice: ANOVA: p=0.853
R6/2 mice [2]; [5]
  Rear Climbing Test Climbing Instances: p vs Vehicle-treated R6/2 mice: ANOVA: p=0.120
  Rear Climbing Test Latency to Climb: p vs Vehicle-treated R6/2 mice: ANOVA: p=0.257
  Rear Climbing Test Rearing Frequency: p vs Vehicle-treated R6/2 mice: ANOVA: p=0.203
  Rear Climbing Test Time Spent Climbing: p vs Vehicle-treated R6/2 mice: ANOVA: p=0.291
R6/2 mice [2]; [6]
  Rear Climbing Test Climbing Instances: p vs Vehicle-treated R6/2 mice: ANOVA: p=0.120
  Rear Climbing Test Latency to Climb: p vs Vehicle-treated R6/2 mice: ANOVA: p=0.257
  Rear Climbing Test Rearing Frequency: p vs Vehicle-treated R6/2 mice: ANOVA: p=0.203
  Rear Climbing Test Time Spent Climbing: p vs Vehicle-treated R6/2 mice: ANOVA: p=0.291
R6/2 mice [2]; [7]
  Rear Climbing Test Climbing Instances: p vs Vehicle-treated R6/2 mice: ANOVA: p=0.166
  Rear Climbing Test Latency to Climb: p vs Vehicle-treated R6/2 mice: ANOVA: p=0.193
  Rear Climbing Test Rearing Frequency: p vs Vehicle-treated R6/2 mice: ANOVA: p=0.782
  Rear Climbing Test Time Spent Climbing: p vs Vehicle-treated R6/2 mice: ANOVA: p=0.750
R6/2 mice [2]; [8]
  Rear Climbing Test Climbing Instances: p vs Vehicle-treated R6/2 mice: ANOVA: p=0.166
  Rear Climbing Test Latency to Climb: p vs Vehicle-treated R6/2 mice: ANOVA: p=0.193
  Rear Climbing Test Rearing Frequency: p vs Vehicle-treated R6/2 mice: ANOVA: p=0.782
  Rear Climbing Test Time Spent Climbing: p vs Vehicle-treated R6/2 mice: ANOVA: p=0.750
R6/2 mice [2]; [9]
  Rear Climbing Test Climbing Instances: p vs Vehicle-treated R6/2 mice: ANOVA: p=0.671
  Rear Climbing Test Latency to Climb: p vs Vehicle-treated R6/2 mice: ANOVA: p=0.846
  Rear Climbing Test Rearing Frequency: p vs Vehicle-treated R6/2 mice: ANOVA: p=0.122
  Rear Climbing Test Time Spent Climbing: p vs Vehicle-treated R6/2 mice: ANOVA: p=0.724
R6/2 mice [2]; [10]
  Rear Climbing Test Climbing Instances: p vs Vehicle-treated R6/2 mice: ANOVA: p=0.671
  Rear Climbing Test Latency to Climb: p vs Vehicle-treated R6/2 mice: ANOVA: p=0.846
  Rear Climbing Test Rearing Frequency: p vs Vehicle-treated R6/2 mice: ANOVA: p=0.122
  Rear Climbing Test Time Spent Climbing: p vs Vehicle-treated R6/2 mice: ANOVA: p=0.724
R6/2 mice [2]; chronic administration in R6/2 mice
  rearing frequency and latency to climb a custom-made pencil holder, effect in words: no improvement
PDE9
  IC50: 44000 nM
